# Legend:
# carboxypeptidase Y and B = test: Metabolic stability in carboxypeptidase mix (ESMS, SIM of molecular ion); assay type: in vitro ADME; conditions: 0.025 mg/ml, 50 mM ammoniumacetate pH 4.5, 37° C., 24 h in degradation solution, enzyme:substrate approx. 1:5
# Protocol: (§1) The solution is left at 37° C. overnight.
# (§2) Identification of degradation products furthermore involved the use of plasma desorption mass spectrometry (PDMS) with sample application on nitrocellulose coated targets and standard instrumental settings. The accuracy of the hereby determined masses is generally better than 0.1%.
# (§3) Separation and isolation of degradation products was done using a HY-TACH C-18 reverse phase 4.6×105 mm HPLC column (Hewlett-Packard Company, Palo Alto, Calif.) with a standard acetonitril: TFA separation gradient. The HPLC system used was HP1090M (Hewlett-Packard Company, Palo Alto, Calif.).
# [1] = tested on: trypsin, chymotrypsin and elastase; test: Metabolic stability in pancreatic enzyme mix (ESMS, SIM of molecular ion); assay type: in vitro ADME; conditions: 0.025 mg/ml, 100 mM ammoniumbicarbonate pH 8.0, 37° C., 24 h in degradation solution, enzyme:substrate approx. 1:5
# Protocol: as §1, §2, §3
substance,measurement,setting,value
Glucagon,Carboxy-peptidase mix (stability),carboxypeptidase Y and B,− (Unstable (more than 20% decrease in SIM signal after 24 h in degradation solution))
same,Pan. enzyme mix (stability),[1],− (Unstable (more than 20% decrease in SIM signal after 24 h in degradation solution))

# Source: patent US7576062B2, “Compounds with growth hormone releasing properties” (Novo Nordisk A/S, priority 1998, dated 2009)
